The test system of data set [1] is DMS-114 cells (TP53 R213X). Description: G418-induced PTC readthrough (full-length p53, capillary electrophoresis Western) in DMS-114 cells. It is filed as cell-based, human. Particulars: for suppression of PTC readthrough induced by 400 μg/ml G418: 3 h preincubation with inhibitor, screen at two concentrations (Fig. 1C). An excerpt: (§1) Variation in PTC readthrough response has been reported among individuals or cell lines with different nonsense mutations. Although this in part highlights the importance of the stop codon and its surrounding sequence as well as the physical location of the nonsense mutation in the mRNA sequence, understanding the contribution of other underlying genetic variations becomes more complicated. To rule out the effect of the sequence and position of nonsense mutations on response variation to potential PTC readthrough modulators, we studied two cancer cell lines, DMS-114 and TC-71, with identical homozygous nonsense mutation R213X in their TP53 gene. […] To find out whether the reduced response to G418 in TC-71 cells was associated with lower intracellular levels of G418, we measured concentrations of G418 in both cell lines at 0, 8 and 24 h post exposure to G418 (100 μg/ml).
Figure 1 Effect of TRPC inhibitors on G418 induced PTC readthrough. A, DMS-114 and TC-71 cell lines with homozygous TP53 nonsense mutation (R213X) were exposed to indicated concentrations of G418 for 24 h and p53 levels (full-length, FL-p53; truncated, TR-p53) were measured. B, 100 μg/ml G418 was added to DMS-114 and TC-71 cells and its total intracellular levels were measured at indicated time points (n = 5; data normalized to the highest response in each experiment; bars represent mean ± SD). C, DMS-114 cells were preincubated with indicated concentrations of TRPC inhibitors GFB-8438 (GFB), SAR7334 (SAR), SKF96365 (SKF), 2-APB, or AC1903 for 3 h followed by exposure to 400 μg/ml G418 for another 3 h. At 24 h cell lysates were prepared and p53 levels were measured. In panels A and C, protein levels were measured by automated capillary electrophoresis Western analysis (using vinculin and GAPDH as loading controls). Samples of cell lysates containing equal amounts of total protein were loaded in all capillaries and FL-p53 levels were expressed relative to the amount of FL-p53 in untreated cells. ∗ indicates statistically significant difference between samples according to two-way ANOVA (p < 0.05). PTC, premature termination codon; TRPC, transient receptor potential canonical.
To further investigate AC1903 as a suppressor of G418-induced PTC readthrough, we exposed DMS-114 and TC-71 cells to various concentrations of AC1903 for 3 h prior to exposure to 400 μg/ml G418 for another 3 h, followed by media replacement and incubation for another 18 h.
(§2) Figure 2 Effect of AC1903 on PTC readthrough and G418 trafficking.A and B, DMS-114 (A) or TC-71 (B) cells were pretreated with indicated concentrations of AC1903 for 3 h followed by exposure to 400 μg/ml G418. After 3 h medium was replenished and at 24 h cell lysates were prepared and p53 levels were measured. C and E, DMS-114 (C) or JEB01 (E) cells were either left untreated or pretreated with 150 μM AC1903 for 3 h followed by exposure to indicated concentrations of G418 for another 3 h. At 24 h cell lysates were prepared and p53 (C) or Collagen XVII (E) levels were measured. In panels A–C, protein levels were measured by automated capillary electrophoresis Western analysis (using vinculin as loading control). In panel E, protein levels were measured by Western blot (using beta-actin as loading control). Samples of cell lysates containing equal amounts of total protein were loaded in all capillaries and FL-p53 or Collagen XVII levels were expressed relative to their respective amounts in untreated cells. D, total intracellular levels of G418 were measured in the same lysates as in (C) (n = 5; data normalized to the highest response in each experiment; bars represent mean ± SD). F, total intracellular levels of G418 were measured in the same lysates as in (E) (n = 2; data normalized to the highest response in each experiment; bars represent mean ± SD). ∗ indicates statistically significant difference between samples according to one-way ANOVA (p < 0.05). PTC, premature termination codon. […]

The subject of data set [2] is TC-71 cells (TP53 R213X). Put plainly: G418-induced PTC readthrough (full-length p53, capillary electrophoresis Western) in TC-71 cells. It is filed as cell-based. To be noted: increasing concentrations of G418, 24 h.
Text: as §1
(§3) Figure 1 Effect of TRPC inhibitors on G418 induced PTC readthrough. A, DMS-114 and TC-71 cell lines with homozygous TP53 nonsense mutation (R213X) were exposed to indicated concentrations of G418 for 24 h and p53 levels (full-length, FL-p53; truncated, TR-p53) were measured. B, 100 μg/ml G418 was added to DMS-114 and TC-71 cells and its total intracellular levels were measured at indicated time points (n = 5; data normalized to the highest response in each experiment; bars represent mean ± SD). […]

Data set [3] concerns TC-71 cells. Description: Measurement of intracellular G418 (gentamicin ELISA) in TC-71 cells. To be noted: 100 μg/ml G418. It is filed as cell-based, human.
Text: as §1, §3
A general note: An ELISA detects its analyte on a solid surface through an enzyme-linked reagent.

The test system of data set [4] is DMS-114 cells (TP53 R213X). Put plainly: G418-induced PTC readthrough (full-length p53, capillary electrophoresis Western) in DMS-114 cells. It is filed as cell-based, human.
Data set [5] relates to hTRPV4. Details: method as in PMID 23136043, PMID 28523109. To be noted: cited from earlier work.
For data set [6], the system named is DMS-114 cells. Description: Measurement of intracellular G418 (gentamicin ELISA) in DMS-114 cells. It is filed as cell-based, human. Particulars: Pico145 up to 3 μM, 400 μg/ml G418 (Fig. 3B). As to the method:
as §2, with “Samples of cell lysates containing equal amounts of total protein were loaded in all capillaries and FL-p53 or Collagen XVII levels were expressed relative to their respective amounts in untreated cells.” left out, “0.05).” for “0.05). PTC, premature termination codon.”

For `NCCOB(c1ccccc1)c1ccccc1` [2-APB], in data set [1], the “suppression of PTC readthrough induced by 400 μg/ml G418” value (“suppression of PTC readthrough induced” for short) is listed as roughly 66%.

For the compound `CN[C@@H]1[C@@H](O)[C@@H](O[C@@H]2[C@@H](O)[C@H](O[C@H]3O[C@H]([C@@H](C)O)[C@@H](O)[C@H](O)[C@H]3N)[C@@H](N)C[C@H]2N)OC[C@]1(C)O` [G418], in data set [1] (increasing concentrations of G418, 24 h), the “increase in production of full-length p53 (readthrough product) compared with untreated cells” value was “up to 144 fold”. The “increase in PTC readthrough compared to untreated cells” value in data set [2] is given as “up to eightfold”. For the same compound, the figures for the “intracellular G418 level lower in TC-71 compared with DMS-114” value in data set [3] (8 h post exposure) and in data set [3] (24 h post exposure) were roughly 11% and roughly 9%, respectively.

For the compound `O=C1CN(c2cn[nH]c(=O)c2Cl)CCN1Cc1ccccc1C(F)(F)F` [GFB-8438], in data set [1], the “suppression of PTC readthrough induced” value is recorded as “no effect”.

`O=C(NC1(c2ccccc2)CC1)c1c(CN2CCC(N3CCCCC3)CC2)c(-c2cccc(C(F)(F)F)c2)nc2cc(Br)ccc12` [GSK2193874]: the “effect on full-length p53 production” value in data set [4] (0.03–3 μM GSK2193874 alone or in combination with 400 μg/ml G418 (Fig. S12)) is on record as “did not have a major effect”. The concentration for half-maximal inhibition (IC50) (in general, the concentration needed to halve the response being measured) in data set [5] is 0.04 µM.

With `Cn1c(=O)n(CCCO)c(=O)c2c1nc(Oc1cccc(OC(F)(F)F)c1)n2Cc1ccc(Cl)cc1` [Pico145], the “effect on intracellular G418 levels” value in data set [6] was “did not affect”. Also, in data set [4] (Pico145 up to 3 μM, 400 μg/ml G418 (Fig. 3A)), the “effect on PTC readthrough” value is given as “did not affect”.

With `N#Cc1ccc(O[C@@H]2c3ccccc3C[C@H]2N2CCC[C@@H](N)C2)c(Cl)c1` [SAR7334], the “suppression of PTC readthrough induced” value in data set [1] is listed as “no effect”.

As to `COc1ccc(CCCOC(Cn2ccnc2)c2ccc(OC)cc2)cc1` (stereo not drawn) [SKF96365], the “suppression of PTC readthrough induced” value in data set [1] is roughly 33%.
